From patent US8673336B2, “Composition, system, and method for modulating release kinetics in implantable drug delivery devices by modifying drug solubility” (Innovational Holdings LLC, priority 2005, dated 2014)
Where a name gives a salt, the structure may show the parent alone.

Columns and labels:
[1] = in vitro cumulative release from low dose imatinib stents (PLGA 85/15 matrix, base and cap); type: physicochemical; details: about 160 micrograms per 16 mm stent, average of three stents
Experimental: The imatinib free-base (slow release) and the imatinib meslate salt (Gleevec) were loaded into holes in stents in a polymer matrix of PLGA 85/15 with a PLGA 85/15 base and cap and the release from the stents was recorded in FIG. 1. A solvent such as NMP or anisol was used to deposit the drug/polymer compositions and then evaporated. The releases shown in FIG. 1 are the average of three stents each. Methods and systems for depositing polymers and drugs within holes in stents are described further in WO 2004/026182 which is incorporated herein by reference.
The dosage for this example was about 160 micrograms normalized for a 16 mm long stent. The free base and salt forms where then combined in the ratios of 86:14, 66:34, and 46:54 and it was shown that the rate of the release (solubility of the drug) is proportional to the percentage of free base or salt. Thus, the selection of a percentage of free base and salt can be used to provide a selected drug release kinetic.
The addition of the free-base form allows the release to be extended past 48 hours to about 72 hours for a formulation of 46% free base and to about 120 hours for a formulation of about 66% free base. While a formulation with 86% free base continues to release imatinib in-vitro at 168 hours and beyond.

[2] = effect of counter ions on in vitro release of imatinib from stents; type: physicochemical; details: total drug load 150 μg to 200 μg; PLA-PLC base and cap, PLGA matrix
Experimental: FIG. 4 illustrates the effect of several counter ions on the in vitro release of a drug, in this example imatinib. Total drug load was 150 μg to 200 μg. PLA-PLC was used in the base and cap while the matrix containing the drug was PLGA as in Examples 1 and 2.

Cc1ccc(NC(=O)c2ccc(CN3CCN(C)CC3)cc2)cc1Nc1nccc(-c2cccnc2)n1 [free base, imatinib]
rate of release from stents (FIG. 1) [1]: slowest release

Cc1ccc(NC(=O)c2ccc(CN3CCN(C)CC3)cc2)cc1Nc1nccc(-c2cccnc2)n1 [imatinib mesylate]
time until release is essentially complete / extent of release duration (FIG. 1) [1]: about 48 hours
rate of release from stents (FIG. 1) ([1]; listed as salt): fastest release
cumulative in vitro release (FIG. 4) [2]: significantly higher cumulative release, relatively quickly, than imatinib salicylate

Cc1ccc(NC(=O)c2ccc(CN3CCN(C)CC3)cc2)cc1Nc1nccc(-c2cccnc2)n1.O=C(O)c1ccccc1O [imatinib salicylate]
cumulative in vitro release (FIG. 4) [2]: significantly higher that that of imatinib
